According to ChEMBL document CHEMBL3885881, “DrugMatrix”:

Species: Rattus norvegicus
Assay: DrugMatrix - Regimen: Daily Repeat
Type: toxicity, organism-based, Sprague-Dawley
Set-up: regimen Daily Repeat, gender Male, age 6-8 weeks
Details: in vivo, po, route oral GAVAGE, […]; for ABSOLUTE BASOPHIL / ABSOLUTE EOSINOPHIL / ABSOLUTE LYMPHOCYTE / ABSOLUTE MONOCYTE / ABSOLUTE SEGMENTED NEUTROPHIL / BASOPHIL / EOSINOPHIL / ERYTHROCYTE COUNT / HEMATOCRIT / HEMOGLOBIN / LEUKOCYTE COUNT / LYMPHOCYTE / MEAN CORPUSCULAR HEMOGLOBIN / MEAN CORPUSCULAR HEMOGLOBIN CONCENTRATION / MEAN CORPUSCULAR VOLUME / MONOCYTE / NEUTROPHIL / NUCLEATED RED BLOOD CELLS / PLATELET COUNT: tissue Blood; for ALANINE AMINOTRANSFERASE / ALBUMIN / ALKALINE PHOSPHATASE / ASPARTATE AMINOTRANSFERASE / BLOOD UREA NITROGEN / CARBON DIOXIDE / CHLORIDE / CHOLESTEROL / CREATINE PHOSPHOKINASE / CREATININE / GLUCOSE / LACTATE DEHYDROGENASE / LIPASE / PHOSPHORUS / POTASSIUM / SODIUM / TOTAL BILIRUBIN / TOTAL PROTEIN / URIC ACID: tissue Plasma
[1] = 0 mg/kg, 72 h, dose level Control, time 3 day
[2] = 0 mg/kg, 120 h, dose level Control, time 5 day
[3] = 15 mg/kg, 72 h, dose level Low, time 3 day
[4] = 15 mg/kg, 120 h, dose level Low, time 5 day

Structure (SMILES): CC(C)C(=O)Nc1ccc([N+](=O)[O-])c(C(F)(F)F)c1 [FLUTAMIDE]
- ABSOLUTE BASOPHIL [1]: 0 CELLS/uL
- ABSOLUTE EOSINOPHIL [1]: 13.67 CELLS/uL
- ABSOLUTE LYMPHOCYTE [1]: 10069.5 CELLS/uL
- ABSOLUTE MONOCYTE [1]: 50 CELLS/uL
- ABSOLUTE SEGMENTED NEUTROPHIL [1]: 516.83 CELLS/uL
- BASOPHIL [1]: 0%
- EOSINOPHIL [1]: 0.17%
- ERYTHROCYTE COUNT [1]: 5.44 x10E6/uL
- HEMATOCRIT [1]: 33.88%
- HEMOGLOBIN [1]: 13.23 G/DL
- LEUKOCYTE COUNT [1]: 10.65 x10E3/uL
- LYMPHOCYTE [1]: 94.67%
- MEAN CORPUSCULAR HEMOGLOBIN [1]: 24.37 pg
- MEAN CORPUSCULAR HEMOGLOBIN CONCENTRATION [1]: 39.05 G/DL
- MEAN CORPUSCULAR VOLUME [1]: 62.38 fL
- MONOCYTE [1]: 0.67%
- NEUTROPHIL [1]: 4.5%
- NUCLEATED RED BLOOD CELLS [1]: 0.33 /100WBC
- PLATELET COUNT [1]: 414.5 x10E3/uL
- ALANINE AMINOTRANSFERASE [1]: 72 u/L
- ALBUMIN [1]: 3.75 G/DL
- ALKALINE PHOSPHATASE [1]: 375 u/L
- ASPARTATE AMINOTRANSFERASE [1]: 87.5 u/L
- BLOOD UREA NITROGEN [1]: 14 mg/dL
- CARBON DIOXIDE [1]: 27.5 mmol/L
- CHLORIDE [1]: 95.83 MEQ/L
- CHOLESTEROL [1]: 68.5 mg/dL
- CREATINE PHOSPHOKINASE [1]: 284.33 u/L
- CREATININE [1]: 0.16 mg/dL
- GLUCOSE [1]: 156.67 mg/dL
- LACTATE DEHYDROGENASE [1]: 101.83 u/L
- LIPASE [1]: 9.67 u/L
- PHOSPHORUS [1]: 10.33 mg/dL
- POTASSIUM [1]: 5.22 MEQ/L
- SODIUM [1]: 137.67 MEQ/L
- TOTAL BILIRUBIN [1]: 0.13 mg/dL
- TOTAL PROTEIN [1]: 5.43 G/DL
- URIC ACID [1]: 0.8 mg/dL
- ABSOLUTE BASOPHIL [2]: 0 CELLS/uL
- ABSOLUTE EOSINOPHIL [2]: 20.67 CELLS/uL
- ABSOLUTE LYMPHOCYTE [2]: 11518.33 CELLS/uL
- ABSOLUTE MONOCYTE [2]: 47 CELLS/uL
- ABSOLUTE SEGMENTED NEUTROPHIL [2]: 614 CELLS/uL
- BASOPHIL [2]: 0%
- EOSINOPHIL [2]: 0.17%
- ERYTHROCYTE COUNT [2]: 5.61 x10E6/uL
- HEMATOCRIT [2]: 34.25%
- HEMOGLOBIN [2]: 13.38 G/DL
- LEUKOCYTE COUNT [2]: 12.2 x10E3/uL
- LYMPHOCYTE [2]: 94.33%
- MEAN CORPUSCULAR HEMOGLOBIN [2]: 23.83 pg
- MEAN CORPUSCULAR HEMOGLOBIN CONCENTRATION [2]: 39.08 G/DL
- MEAN CORPUSCULAR VOLUME [2]: 61.03 fL
- MONOCYTE [2]: 0.33%
- NEUTROPHIL [2]: 5.17%
- NUCLEATED RED BLOOD CELLS [2]: 0 /100WBC
- PLATELET COUNT [2]: 941.83 x10E3/uL
- ALANINE AMINOTRANSFERASE [2]: 68.83 u/L
- ALBUMIN [2]: 4.12 G/DL
- ALKALINE PHOSPHATASE [2]: 492.67 u/L
- ASPARTATE AMINOTRANSFERASE [2]: 83.33 u/L
- BLOOD UREA NITROGEN [2]: 14 mg/dL
- CARBON DIOXIDE [2]: 37 mmol/L
- CHLORIDE [2]: 98.67 MEQ/L
- CHOLESTEROL [2]: 56.5 mg/dL
- CREATINE PHOSPHOKINASE [2]: 167.33 u/L
- CREATININE [2]: 0.17 mg/dL
- GLUCOSE [2]: 157.5 mg/dL
- LACTATE DEHYDROGENASE [2]: 104.83 u/L
- LIPASE [2]: 10 u/L
- PHOSPHORUS [2]: 10.43 mg/dL
- POTASSIUM [2]: 5.46 MEQ/L
- SODIUM [2]: 143.87 MEQ/L
- TOTAL BILIRUBIN [2]: 0.17 mg/dL
- TOTAL PROTEIN [2]: 5.72 G/DL
- URIC ACID [2]: 0.85 mg/dL
- ABSOLUTE BASOPHIL [3]: 0 CELLS/uL
- ABSOLUTE EOSINOPHIL [3]: 10.67 CELLS/uL
- ABSOLUTE LYMPHOCYTE [3]: 6470.33 CELLS/uL
- ABSOLUTE MONOCYTE [3]: 86 CELLS/uL
- ABSOLUTE SEGMENTED NEUTROPHIL [3]: 599.67 CELLS/uL
- BASOPHIL [3]: 0%
- EOSINOPHIL [3]: 0.33%
- ERYTHROCYTE COUNT [3]: 5.25 x10E6/uL
- HEMATOCRIT [3]: 32.9%
- HEMOGLOBIN [3]: 13.03 G/DL
- LEUKOCYTE COUNT [3]: 7.17 x10E3/uL
- LYMPHOCYTE [3]: 91.67%
- MEAN CORPUSCULAR HEMOGLOBIN [3]: 24.87 pg
- MEAN CORPUSCULAR HEMOGLOBIN CONCENTRATION [3]: 39.6 G/DL
- MEAN CORPUSCULAR VOLUME [3]: 62.8 fL
- MONOCYTE [3]: 1%
- NEUTROPHIL [3]: 7%
- NUCLEATED RED BLOOD CELLS [3]: 0 /100WBC
- PLATELET COUNT [3]: 851.33 x10E3/uL
- ALANINE AMINOTRANSFERASE [3]: 92 u/L
- ALBUMIN [3]: 3.97 G/DL
- ALKALINE PHOSPHATASE [3]: 441.67 u/L
- ASPARTATE AMINOTRANSFERASE [3]: 111 u/L
- BLOOD UREA NITROGEN [3]: 12.33 mg/dL
- CARBON DIOXIDE [3]: 27.67 mmol/L
- CHLORIDE [3]: 95.5 MEQ/L
- CHOLESTEROL [3]: 77.67 mg/dL
- CREATINE PHOSPHOKINASE [3]: 476.67 u/L
- CREATININE [3]: 0.33 mg/dL
- GLUCOSE [3]: 152 mg/dL
- LACTATE DEHYDROGENASE [3]: 156.33 u/L
- LIPASE [3]: 13.67 u/L
- PHOSPHORUS [3]: 9.97 mg/dL
- POTASSIUM [3]: 5.27 MEQ/L
- SODIUM [3]: 138.85 MEQ/L
- TOTAL BILIRUBIN [3]: 0.17 mg/dL
- TOTAL PROTEIN [3]: 5.23 G/DL
- URIC ACID [3]: 0.7 mg/dL
- ABSOLUTE BASOPHIL [4]: 0 CELLS/uL
- ABSOLUTE EOSINOPHIL [4]: 0 CELLS/uL
- ABSOLUTE LYMPHOCYTE [4]: 8137.67 CELLS/uL
- ABSOLUTE MONOCYTE [4]: 25 CELLS/uL
- ABSOLUTE SEGMENTED NEUTROPHIL [4]: 504 CELLS/uL
- BASOPHIL [4]: 0%
- EOSINOPHIL [4]: 0%
- ERYTHROCYTE COUNT [4]: 6.06 x10E6/uL
- HEMATOCRIT [4]: 36.17%
- HEMOGLOBIN [4]: 13.93 G/DL
- LEUKOCYTE COUNT [4]: 8.67 x10E3/uL
- LYMPHOCYTE [4]: 94%
- MEAN CORPUSCULAR HEMOGLOBIN [4]: 23.03 pg
- MEAN CORPUSCULAR HEMOGLOBIN CONCENTRATION [4]: 38.53 G/DL
- MEAN CORPUSCULAR VOLUME [4]: 59.7 fL
- MONOCYTE [4]: 0.33%
- NEUTROPHIL [4]: 5.67%
- NUCLEATED RED BLOOD CELLS [4]: 0 /100WBC
- PLATELET COUNT [4]: 1066.67 x10E3/uL
- ALANINE AMINOTRANSFERASE [4]: 57 u/L
- ALBUMIN [4]: 4.03 G/DL
- ALKALINE PHOSPHATASE [4]: 326.67 u/L
- ASPARTATE AMINOTRANSFERASE [4]: 78 u/L
- BLOOD UREA NITROGEN [4]: 13.33 mg/dL
- CARBON DIOXIDE [4]: 35.67 mmol/L
- CHLORIDE [4]: 99.33 MEQ/L
- CHOLESTEROL [4]: 75 mg/dL
- CREATINE PHOSPHOKINASE [4]: 234.33 u/L
- CREATININE [4]: 0.18 mg/dL
- GLUCOSE [4]: 140 mg/dL
- LACTATE DEHYDROGENASE [4]: 135.33 u/L
- LIPASE [4]: 9.67 u/L
- PHOSPHORUS [4]: 10.43 mg/dL
- POTASSIUM [4]: 5.86 MEQ/L
- SODIUM [4]: 143.57 MEQ/L
- TOTAL BILIRUBIN [4]: 0.23 mg/dL
- TOTAL PROTEIN [4]: 5.83 G/DL
- URIC ACID [4]: 0.67 mg/dL
